# Measurements reported in patent publication US10238680B2, “D-amino acid phosphoramidate pronucleotides of halogeno pyrimidine compounds for liver disease” (priority 2013, dated 2019).
# Experiments:
# [1] = molecular target: T1, wild-type HCV genotype 1b NS5B polymerase (Hepatitis C virus genotype 1b, UniProt Q9WMX2); test: HCV polymerase enzyme assay, wild-type; format: biochemical
# T1 construct: approximately 65 kDa HCV genotype 1b NS5B protein were used to generate recombinant HCV polymerases (with a deletion of the 21 carboxy terminal amino acids); made in house
# Source text: Test compounds in the form of nucleoside triphosphates were examined for inhibitory activity against purified HCV polymerase in a standard assay. Bacterial expression constructs encoding the approximately 65 kDa HCV genotype 1b NS5B protein were used to generate recombinant HCV polymerases (with a deletion of the 21 carboxy terminal amino acids). The wild-type genotype 1b protein was expressed and purified for use in the enzymatic activity assay.
# The enzymatic activity assay measured the inhibitory effect of increasing concentrations of test compound on the incorporation of α-[^33P]-labeled nucleotide into trichloroacetic acid-precipitable material. Recombinant polymerase and synthetic RNA template were combined in reaction buffer containing three unlabeled ribonucleoside triphosphates, one α-[^33P]-labeled ribonucleosidee triphosphate and eight concentrations of test compound in three-fold dilutions. Reactions were incubated for two hours at 30° C.
# Reactions were terminated by the addition of ice-cold trichloroacetic acid and sodium pyrophosphate to promote precipitation of newly-synthesized ribonucleic acid. Precipitable material from the reactions was collected by filtration onto 96-well filter plates, washed extensively with water, and quantified by liquid scintillation.
# The inhibitory activity of test compounds was determined by fitting results to dose-response curves using XLfit software.
# HCV polymerase S282T = molecular target: T2, HCV polymerase S282T (Hepatitis C virus genotype 1b, UniProt Q9WMX2, S2701T); test: HCV polymerase enzyme assay, S282T; format: biochemical
# T2 construct: approximately 65 kDa HCV genotype 1b NS5B protein were used to generate recombinant HCV polymerases (with a deletion of the 21 carboxy terminal amino acids); made in house
Structure (SMILES),IC50 [1] [nM],IC50 (HCV polymerase S282T) [nM]
C[C@@]1(Cl)[C@H](O)[C@@H](COP(=O)(O)OP(=O)(O)OP(=O)(O)O)O[C@H]1n1cc(F)c(=O)[nH]c1=O [Compound 301],250 to 1000,–
C[C@@]1(O)[C@H](O)[C@@H](COP(=O)(O)OP(=O)(O)OP(=O)(O)O)O[C@H]1n1cc(F)c(N)nc1=O [Compound 302],< 250,–
C[C@@]1(Cl)[C@H](O)[C@@H](COP(=O)(O)OP(=O)(O)OP(=O)(O)O)O[C@H]1n1cc(F)c(N)nc1=O [Compound 303],250 to 1000,–
C[C@@]1(F)[C@H](O)[C@@H](COP(=O)(O)OP(=O)(O)OP(=O)(O)O)O[C@H]1n1cc(F)c(=O)[nH]c1=O [Compound 304],< 250,1000 to 10000
